From patent US9518061B2, “Substituted pyrazolylpyrazole derivative and use of same as herbicide” (KYOYU AGRI CO., LTD., priority 2013, dated 2016)

Experiments:
Format in all cases: in vivo
Echinochloa crus-galli = experiment: Paddy herbicidal activity test; conditions: irrigated paddy pot, treated at 3.5 leaf stage of Echinochloa crus-galli, 30 days
Experimental: (§1) 1. Paddy Herbicidal Activity Test
(§2) Rice paddy soil was filled into a 1/10000 are pot followed by the addition of suitable amounts of water and chemical fertilizer, kneading, seeding with Echinochloa crus-galli, Monochoria vaginalis and Scirpus juncoides and maintaining in an irrigated state at a water depth of 3 cm.
(§3) Wettable powder of Target Compound (I) shown in Table 1 prepared in compliance with the preparation examples were diluted with a suitable amount of water, rice plants in the 2.0 leaf stage were transplanted during 3.5 leaf stage of Echinochloa crus-galli, and treated by dropping in chemical in the prescribed amount per are using a pipette.
(§4) After treating for 30 days in a glass greenhouse at an average atmospheric temperature of 30° C., the herbicidal efficacy thereof was investigated.
(§5) Evaluation of herbicidal efficacy was carried out by comparing growth inhibition rate (%) with an untreated group, while evaluation of phytotoxicity was carried out by comparing growth inhibition rate (%) with the state of a complete eradication group, and were evaluated at 11 levels indicated below.

Monochoria vaginalis = experiment: Paddy herbicidal activity test; conditions: irrigated paddy pot, 30 days
Experimental: as §1, §2, §3, §4, §5

Scirpus juncoides = experiment: Paddy herbicidal activity test; conditions: irrigated paddy pot, 30 days
Experimental: as §1, §2, §3, §4, §5

Rice plants = experiment: Paddy herbicidal activity test, phytotoxicity to transplanted rice; conditions: rice transplanted in 2.0 leaf stage, 30 days
Experimental: as §1, §2, §3, §4, §5

| SMILES | herbicidal efficacy (growth inhibition rate level) Echinochloa crus-galli (Echinochloa crus-galli; 1g a.i./10a) | herbicidal efficacy (growth inhibition rate level) Echinochloa crus-galli (Echinochloa crus-galli; 5g a.i./10a) | herbicidal efficacy (growth inhibition rate level) Monochoria vaginalis (Monochoria vaginalis; 1g a.i./10a) | herbicidal efficacy (growth inhibition rate level) Monochoria vaginalis (Monochoria vaginalis; 5g a.i./10a) | herbicidal efficacy (growth inhibition rate level) Scirpus juncoides (Scirpus juncoides; 1g a.i./10a) | herbicidal efficacy (growth inhibition rate level) Scirpus juncoides (Scirpus juncoides; 5g a.i./10a) | phytotoxicity (growth inhibition rate level) Rice plants (Rice plants; 1g a.i./10a) | phytotoxicity (growth inhibition rate level) Rice plants (Rice plants; 5g a.i./10a) |
| --- | --- | --- | --- | --- | --- | --- | --- | --- |
| N#Cc1cnn(-c2nn3c(c2Cl)CCCC3)c1N(CCC(F)(F)F)C(=O)C(F)(F)F [Compound 4] | 9 (90% to less than 100%) | 10 (100%) | 8 (80% to less than 90%) | 8 (80% to less than 90%) | 9 (90% to less than 100%) | 9 (90% to less than 100%) | 0 (0 (exponent): 0% to less than 10% (growth inhibition rate)) | 0 (0 (exponent): 0% to less than 10% (growth inhibition rate)) |
| CCOCCN(C(=O)C(F)(F)F)c1c(C#N)cnn1-c1nn2c(c1Br)CCCC2 [Compound 14] | 9 (90% to less than 100%) | 9 (90% to less than 100%) | 7 (70% to less than 80%) | 8 (80% to less than 90%) | 8 (80% to less than 90%) | 9 (90% to less than 100%) | 1 (10% to less than 20%) | 1 (10% to less than 20%) |
| N#Cc1cnn(-c2nn3c(c2Cl)CCCC3)c1N(CC(F)(F)F)C(=O)C(F)(F)F [Compound 8] | 8 (80% to less than 90%) | 9 (90% to less than 100%) | 9 (90% to less than 100%) | 9 (90% to less than 100%) | 9 (90% to less than 100%) | 10 (100%) | 0 (0 (exponent): 0% to less than 10% (growth inhibition rate)) | 0 (0 (exponent): 0% to less than 10% (growth inhibition rate)) |
| CCOCCN(C(=O)C(F)(F)F)c1c(C#N)cnn1-c1nn2c(c1Cl)CCCC2 [Compound 5] | 9 (90% to less than 100%) | 9 (90% to less than 100%) | 8 (80% to less than 90%) | 8 (80% to less than 90%) | 8 (80% to less than 90%) | 9 (90% to less than 100%) | 0 (0 (exponent): 0% to less than 10% (growth inhibition rate)) | 1 (10% to less than 20%) |
| N#Cc1cnn(-c2nn3c(c2Br)CCCC3)c1N(CCCCl)C(=O)C(F)(F)F [Compound 17] | 8 (80% to less than 90%) | 8 (80% to less than 90%) | 9 (90% to less than 100%) | 9 (90% to less than 100%) | 7 (70% to less than 80%) | 8 (80% to less than 90%) | 0 (0 (exponent): 0% to less than 10% (growth inhibition rate)) | 0 (0 (exponent): 0% to less than 10% (growth inhibition rate)) |
